According to patent publication US9187415B2, “Sulfonamides as HIV protease inhibitors” (Merck Canada Inc., priority 2010, dated 2015):
Like-named read-outs stand apart in the source and are kept apart here.

How the values were obtained:
[1] = target: T1, HIV-1 protease (wild type) (Human immunodeficiency virus type 1 group M subtype B, UniProt P04585); test: Protease Inhibition Assay (Pepcleave), inhibition of microbial expressed HIV protease; type: biochemical
T1 construct: made in house; host or cells: Escherichia coli
Protocol: Assay for Inhibition of Microbial Expressed HIV Protease
Inhibition studies of the reaction of the protease (which was expressed in Eschericia coli) with a peptide substrate [Val-Ser-Gln-Asn-(betanaphtyl)Ala-Pro-Ile-Val]. The inhibitor is first preincubated with the HIV-1 protease (wild type) enzyme in assay buffer (50 mM sodium acetate, pH 5.5, 100 mM NaCl, and 0.1% BSA) for 30 minutes at room temperature. Substrate is added to 400 micromolar in a total volume of 80 microliters containing 10 picomolar HIV-1 protease and the reaction is incubated for 1 hour at 30° C. The reaction is quenched with the addition of 120 microliters of 10% phosphoric acid. The product formation is determined after separation of product and substrate on a Zorbax Eclipse XDB-C18 column connected to an Agilent 1100 high performance liquid chromatography system with fluorescence detection (excitation 270 nanometer and emission 330 nanometer). Alternatively, the inhibitor is preincubated with enzyme and substrate as described above, but in a total volume of 20 microliters containing 20 picomolar HIV-1 protease and the reaction is incubated for 1 hour at 30° C. The reaction is quenched with the addition of 30 microliters of 1 micromolar indinavir (indinavir is also used as an internal standard), and the product formation is determined after separation of product and substrate on a Zorbax Eclipse XDB-C18 column connected to an API 4000 mass spectrometer (Applied Biosystems) with multiple reaction monitoring (transitions were 644.5/428.9 and 615.4/422.2 (M1/M3) for product and indinavir respectively). The extent of inhibition of the reaction is determined from the peak area of the products. HPLC of the products, independently synthesized, provided quantitation standards and confirmation of the product composition.
Protease Inhibition Assay (“Pepcleave”) data were collected based on the wild-type HIV-1 protease enzyme. The assay monitors the cleavage of a 8-mer peptide (VSQN[β-Nal]PIV) where the tyrosine at P1 position is replaced by β-Naphthyl-alanine. Upon cleavage of the peptide by HIV-1 protease, the product is separated from substrate by HPLC column and detected at Ex.=270 nm/Em=330 nm.

[2] = test system: human immunodeficiency virus type 1; test: Acute Infection Assay (Spread); type: cell-based, HIV-1
From the text: Acute Infection Assay (“Spread”) data were generated in 10% FBS, and according to the methods disclosed by J. P. Vacca et al, “L-735,524: An orally bioavailable human immunodeficiency virus type 1 protease inhibitor,” Proc. Nati. Acad. Sci. USA, Vol. 91, pp. 4096-4100 (April 1994).

[3] = wild-type HIV-1 protease, mean of at least two independent experiments, read-out: Pepcleave Enzyme inhibition IC50
[4] = Human immunodeficiency virus 1, 10% FBS, mean of at least two independent experiments, read-out: Spread IC95

Row | Compound | IC50 [1, 3] | IC95 [2, 4] | IC50 [1] | IC95 ([2]; Human immunodeficiency virus 1, read-out: Spread IC95)
1 | [2H]C([2H])([2H])C([2H])(C([2H])([2H])[2H])C([2H])([2H])N([C@H](CO)CSc1ccncc1NC(=O)[C@@H](NC(=O)OC)C(c1ccccc1)c1ccccc1)S(=O)(=O)c1ccc2ncsc2c1 [Example 25, N-[4-({(2R)-2-[(1,3-benzothiazol-6-ylsulfonyl)(2-methylpropyld7)amino)-3-hydroxypropyl}sulfanyl)pyridin-3-yl]-Nα-(methoxycarbonyl)-β-phenyl-L-phenylalaninamide] | 4.8 nM | 1150 nM |  | 
2 | COC(=O)N[C@H](C(=O)Nc1cccc(C[C@@H](CO)N(CCC(C)C)S(=O)(=O)c2ccc(N)cc2)c1)C(c1ccccc1)c1ccccc1 [Example 31, N-{3-[(2S)-2-{[(4-aminophenyl)sulfonyl](3-methylbutyl)amino}-3-hydroxypropyl]phenyl}-Nα-(methoxycarbonyl)-β-phenyl-L-phenylalaninamide] | 3.7 nM | 1260 nM |  | 
3 | COC(=O)N[C@@H](Cc1ccccc1Cl)C(=O)Nc1ccccc1CC[C@@H](CO)N(CCC(C)C)S(=O)(=O)c1ccc2ncsc2c1 [Example 16, N-(2-{(3S)-3-[(1,3-benzothiazol-6-ylsulfonyl)(3-methylbutyl)amino]-4-hydroxybutyl}phenyl)-2-chloro-Nα-(methoxycarbonyl)-L-phenylalaninamide] | 8.1 nM |  |  | 
4 | COC(=O)N[C@@H](Cc1ccccc1Cl)C(=O)Nc1ccccc1CC[C@@H](CO)N(Cc1cn[nH]c1)S(=O)(=O)c1ccc(N)cc1 [Example 15, N-{2[(3S)-3-{[(4-aminophenyl)sulfonyl](1H-pyrazol-4-ylmethyl)amino}-4-hydroxybutyl]phenyl}-2-chloro-Nα-(methoxycarbonyl)-L-phenylalaninamide] | 1.8 nM | 2440 nM |  | 
5 | COC(=O)N[C@H](C(=O)Nc1cccc(C[C@@H](CO)N(C(C)C)S(=O)(=O)c2ccc(CO)cc2)c1)C(c1ccccc1)c1ccccc1 [Example 35, N-(3-{(2S)-3-hydroxy-2[{[4-(hydroxymethyl)phenyl]sulfonyl}(propan-2-yl)amino]propyl}phenyl)-Nα-(methoxycarbonyl)-β-phenyl-L-phenylalaninamide] | 18.9 nM |  |  | 
6 | COC(=O)N[C@H](C(=O)Nc1ccccc1CC[C@@H](CO)N(CC(C)C)S(=O)(=O)c1ccc2ncsc2c1)C(c1ccccc1)c1ccccc1 [Example 7, N-(2-{(3S)-3-[(1,3-benzothiazol-6-ylsulfonyl)(2-methylpropyl)amino]-4-hydroxybutyl}phenyl)-Nα-(methoxycarbonyl)-β-phenyl-L-phenylalaninamide] | 1.6 nM |  |  | 
7 | COC(=O)N[C@H](C(=O)Nc1cccnc1CC[C@@H](CO)N(Cc1cncnc1C)S(=O)(=O)c1ccc2ncsc2c1)C(c1ccccc1)c1ccccc1 [Example 19, N-[2[(3S)-3-{(1,3-benzothiazol-6-ylsulfonyl)[(4-methylpyrimidin-5-yl)methyl]amino)-4-hydroxybutyl]pyridin-3-yl]-Nα-(methoxycarbonyl)-β-phenyl-L-phenylalaninamide] | 4.2 nM | 766 nM |  | 
8 | [2H]C([2H])(c1ccccc1NC(=O)[C@@H](NC(=O)OC)C(c1ccccc1)c1ccccc1)C([2H])([2H])[C@@H](CO)N(CC(C)C)S(=O)(=O)c1ccc2ncsc2c1 [Example 21, N-(2-{(3S)-3-[(1,3-benzothiazol-6-ylsulfonyl)(2-methylpropyl)amino]-1-d2-2-d2-4-hydroxybutyl}phenyl)-Nα-(methoxycarbonyl)-β-phenyl-L-phenylalaninamide] | 3.7 nM |  |  | 
9 | COC(=O)N[C@H](C(=O)Nc1ccccc1[S+]([O-])C[C@@H](CO)N(CCC(C)C)S(=O)(=O)c1ccc(N)cc1)C(c1ccccc1)c1ccccc1 (stereo partly drawn) [Example 30, N-(2-{[(2R)-2-{[(4-aminophenyl)sulfonyl](3-methylbutyl)amino}-3-hydroxypropyl]sulfinyl}phenyl)-Nα-(methoxycarbonyl)-β-phenyl-L-phenyl alaninamide] | 2.1 nM | 1780 nM |  | 
10 | COC(=O)N[C@H](C(=O)Nc1cnccc1SC[C@@H](CO)N(CC(C)C)S(=O)(=O)c1ccc2ncsc2c1)C(c1ccccc1)c1ccccc1 [Example 24, N-[4-({(2R)-2-[(1,3-benzothiazol-6-ylsulfonyl)(2-methylpropyl)amino]-3-hydroxypropyl}sulfanyl)pyridin-3-yl]-Nα-(methoxycarbonyl)-β-phenyl-L-phenylalaninamide] | 4.2 nM | 1120 nM |  | 
11 | COC(=O)N[C@H](C(=O)Nc1cc(F)ccc1CC[C@@H](CO)N(CC1CC(F)(F)C1)S(=O)(=O)c1ccc2ncsc2c1)C(c1ccccc1)c1ccccc1 [Example 13, N-{2-[(3S)-3-{(1,3-benzothiazol-6-ylsulfonyl)[(3,3-difluorocyclobutyl)methyl]amino}-4-hydroxybutyl]-5-fluorophenyl}-Nα-(methoxycarbonyl)-β-phenyl-L-phenylalaninamide] | 1.9 nM | 1180 nM |  | 
12 | COC(=O)N[C@H](C(=O)Nc1ccccc1S(=O)(=O)C[C@@H](CO)N(CCC(C)C)S(=O)(=O)c1ccc(N)cc1)C(c1ccccc1)c1ccccc1 [Example 29, N-(2-{[(2R)-2-{[(4-aminophenyl)sulfonyl)(3-methylbutyl)amino}-3-hydroxypropyl]sulfonyl}phenyl)-Nα-(methoxycarbonyl)-β-phenyl-L-phenyl alaninamide] | 2.9 nM | 1250 nM |  | 
13 | COC(=O)N[C@H](C(=O)Nc1cccc(C[C@@H](CO)N(CCC(C)C)S(=O)(=O)c2ccc(CO)cc2)c1)C(c1ccccc1)c1ccccc1 [Example 32, N-(3-{(2S)-3-hydroxy-2-[{[4-(hydroxymethyl)phenyl]sulfonyl}(3-methylbutyl)amino]propyl}phenyl)-Nα-(methoxycarbonyl)-β-phenyl-L-phenylalaninamide] |  | 1740 nM | 2.4 nM | 
14 | COC(=O)N[C@H](C(=O)Nc1ccccc1CC[C@@H](CO)N(CC1CC1)S(=O)(=O)c1ccc(N)cc1)C(c1ccccc1)c1ccccc1 [Example 3, N-{2-[(3S)-3-{[(4-aminophenyl)sulfonyl](cyclopropylmethyl)amino}-4-hydroxybutyl]phenyl}-Nα-(methoxycarbonyl)-β-phenyl-L-phenylalaninamide] | 0.2 nM |  |  | 307 nM
15 | COC(=O)N[C@H](C(=O)Nc1ccccc1CC[C@@H](CO)N(Cc1cn[nH]c1)S(=O)(=O)c1ccc(N)cc1)C(c1ccccc1)c1ccccc1 [Example 6, N-{2-[(3S)-3-{[(4-aminophenyl)sulfonyl](1H-pyrazol-4-ylmethyl)amino}-4-hydroxybutyl]phenyl}-Nα-(methoxycarbonyl)-β-phenyl-L-phenylalaninamide] |  | 2340 nM | 0.07 nM | 
16 | COC(=O)N[C@H](C(=O)Nc1cccc(C[C@@H](CO)N(C(C)C)S(=O)(=O)c2ccc(N)cc2)c1)C(c1ccccc1)c1ccccc1 [Example 34, N-{3-[(2S)-2-{[(4-aminophenyl)sulfonyl](propan-2-yl)amino}-3-hydroxypropyl)phenyl}-Nα-(methoxycarbonyl)-β-phenyl-L-phenylalaninamide] | 41.6 nM |  |  | 
17 | [2H]C([2H])([2H])C([2H])(C([2H])([2H])[2H])C([2H])([2H])N([C@H](CO)C([2H])([2H])C([2H])([2H])c1ccccc1NC(=O)[C@@H](NC(=O)OC)C(c1ccccc1)c1ccccc1)S(=O)(=O)c1ccc2ncsc2c1 [Example 22, N-(2-{(3S)-3-[(1,3-benzothiazol-6-ylsulfonyl)(2-methylpropyl-d7)amino]-1-d2-2-d2-4-hydroxybutyl}phenyl)-Nα-(methoxycarbonyl)-β-phenyl-L-phenylalaninamide] | 1.7 nM |  |  | 
18 | COC(=O)N[C@@H](Cc1ccccc1Cl)C(=O)Nc1ccccc1CC[C@@H](CO)N(Cc1cn(C)nc1C)S(=O)(=O)c1ccc2ncsc2c1 [Example 17, N-{2-[(3S)-3-{(1,3-benzothiazol-6-ylsulfonyl)[(1,3-dimethyl-1H-pyrazol-4-yl)methyl]amino}-4-hydroxybutyl]phenyl}-2-chloro-Nα-(methoxycarbonyl)-L-phenylalaninamide] | 10 nM |  |  | 
19 | [2H]C([2H])([2H])C([2H])([2H])N([C@H](CO)Cc1cccc(NC(=O)[C@@H](NC(=O)OC)C(c2ccccc2)c2ccccc2)c1)S(=O)(=O)c1ccc(N)cc1 [Example 33, N-{3-[(2S)-2-{[(4-aminophenyl)sulfonyl](ethyl-d5)amino}-3-hydroxypropyl]phenyl}-Nα-(methoxycarbonyl)-β-phenyl-L-phenylalaninamide] | 50.2 nM |  |  | 
